Data on four compounds can be found in paper PMC6476959, “Novel 3,4-Dihydroisocoumarins Inhibit Human P-gp and BCRP in Multidrug Resistant Tumors and Demonstrate Substrate Inhibition of Yeast Pdr5” (Frontiers in Pharmacology, 2019).

Entries after “also recorded” stand apart in the source; their conditions may differ.

In data set [1] the target is T1, P-gp (Homo sapiens, UniProt P08183).
T1 construct: endogenous in cells; host or cells: HCT-15 human colon adenocarcinoma cells
The experiment in a line: P-gp transport assay (calcein-AM) in HCT-15 cells. Format: cell-based. On the procedure:
The transport of calcein-AM by P-gp and its modulation by test compounds was analyzed in the P-gp-expressing HCT-15 cell line. 5 × 10^4 cells were seeded in black 96-well plates and incubated at 37°C and 5% CO2 for 24 h. The culture medium was removed and replaced by Hank’s balanced salt solution supplemented with 10 mM HEPES. Test compounds, 2.5 μM PSC833 (positive control) or 0.5% DMSO (negative control) were added in triplicates and incubated for 30 min at 37°C and 5% CO2. The substrate calcein-AM was added (final concentration 0.5 μM) and the fluorescence (excitation 485 nm, emission 520 nm) was measured over 3 h with the Infinite m1000 pro microplate reader (Tecan Group AG, Männedorf, Switzerland) at 37°C. The transport activity of P-gp was analyzed by determining the slope of the linear part of the fluorescence-time curve (0–30 min) using linear regression. Normalization of the data to PSC833 (100% inhibition) and DMSO (0% inhibition) was performed.

The target in data set [2] is T2, Pdr5 (Saccharomyces cerevisiae, UniProt P33302).
T2 construct: effect on (A) the transport activity of Pdr5 WT and (B) their effect on the ATPase activity; made in house; host or cells: S. cerevisiae YRE1001 (pdr1-3 background), isolated plasma membranes
T2 sequence (P33302 whole entry): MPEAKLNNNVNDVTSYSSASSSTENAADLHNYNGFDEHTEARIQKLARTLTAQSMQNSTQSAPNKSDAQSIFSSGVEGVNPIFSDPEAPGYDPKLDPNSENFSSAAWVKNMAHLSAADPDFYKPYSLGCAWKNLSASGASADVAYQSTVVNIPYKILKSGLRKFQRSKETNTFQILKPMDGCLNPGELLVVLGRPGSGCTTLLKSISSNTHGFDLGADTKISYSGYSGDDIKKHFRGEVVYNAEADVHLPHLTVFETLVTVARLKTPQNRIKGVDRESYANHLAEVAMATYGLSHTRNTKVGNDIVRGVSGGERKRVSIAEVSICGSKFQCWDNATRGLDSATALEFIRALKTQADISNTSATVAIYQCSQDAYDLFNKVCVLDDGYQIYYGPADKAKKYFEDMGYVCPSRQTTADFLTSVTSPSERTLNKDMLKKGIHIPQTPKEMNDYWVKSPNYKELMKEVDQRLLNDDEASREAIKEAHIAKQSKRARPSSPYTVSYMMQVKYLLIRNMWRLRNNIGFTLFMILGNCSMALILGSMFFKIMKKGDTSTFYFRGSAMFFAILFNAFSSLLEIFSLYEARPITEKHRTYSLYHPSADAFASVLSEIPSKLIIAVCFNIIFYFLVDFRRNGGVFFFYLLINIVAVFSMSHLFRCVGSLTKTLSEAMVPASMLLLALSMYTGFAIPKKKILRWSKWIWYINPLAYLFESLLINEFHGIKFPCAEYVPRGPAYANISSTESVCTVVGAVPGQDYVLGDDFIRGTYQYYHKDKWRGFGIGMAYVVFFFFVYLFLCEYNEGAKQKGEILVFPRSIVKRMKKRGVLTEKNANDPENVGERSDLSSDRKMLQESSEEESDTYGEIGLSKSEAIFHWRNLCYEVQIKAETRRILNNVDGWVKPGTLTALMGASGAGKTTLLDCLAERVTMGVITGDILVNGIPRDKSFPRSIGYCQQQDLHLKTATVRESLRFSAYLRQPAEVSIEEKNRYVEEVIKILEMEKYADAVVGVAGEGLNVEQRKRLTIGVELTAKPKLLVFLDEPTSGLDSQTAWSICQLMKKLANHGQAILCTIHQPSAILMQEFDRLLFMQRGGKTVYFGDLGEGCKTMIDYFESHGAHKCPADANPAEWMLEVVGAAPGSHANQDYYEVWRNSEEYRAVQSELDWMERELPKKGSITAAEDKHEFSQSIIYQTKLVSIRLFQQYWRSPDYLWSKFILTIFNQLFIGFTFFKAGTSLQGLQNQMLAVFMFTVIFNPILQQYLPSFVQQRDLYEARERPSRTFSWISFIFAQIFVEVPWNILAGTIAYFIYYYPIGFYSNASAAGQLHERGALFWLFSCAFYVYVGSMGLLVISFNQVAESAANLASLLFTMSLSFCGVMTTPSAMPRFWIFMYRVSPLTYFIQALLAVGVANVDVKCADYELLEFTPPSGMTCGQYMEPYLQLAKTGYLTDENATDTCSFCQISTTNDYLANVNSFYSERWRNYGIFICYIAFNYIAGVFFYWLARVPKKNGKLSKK
The data set is described as follows: Pdr5 transport assay (R6G) in plasma membrane preparations. Format: biochemical. On the set-up: R6G transport activity of Pdr5 WT inhibited to (initial screen): dose or concentration left out as unconfirmed. As to conditions: for R6G transport activity of Pdr5 WT inhibited to (initial screen): relative to Pdr5 WT without compound. On the procedure: Saccharomyces cerevisiae cells expressing Pdr5 WT or the E1036Q (EQ) mutant were cultured to an OD600 of 1.5 in YPD-media at 25°C. The nitrogen source was replenished by addition of a 10th volume of 5x YP (50 g/l yeast extract, 100 g/l peptone). The cells were grown to an OD of 3.5 and harvested (5000 ×g at 4°C for 15 min). The isolation of Pdr5 containing PMs was performed as described ([Kolaczkowski et al., 1996]; [Ernst et al., 2008]).
Active transport of R6G was measured according to the protocol developed by [Kolaczkowski et al. (1996)], using a Tecan Infinite 200 pro reader (Tecan Group AG, Männedorf, Switzerland). 6 μg of the isolated PM containing Pdr5 were resuspended in 200 μl of the transport buffer (50 mM HEPES, pH 7.0, 5 mM MgCl2, 10 mM NaN3, and 150 nM R6G) and incubated in a black 96-well plate at 30°C. 5 μl of the test compound were added at the indicated concentrations. Active transport was initiated by the addition of 10 μl 200 mM ATP and fluorescence intensity was recorded in 15 s-intervals for 20 min (excitation wavelength at 524 nm, emission wavelength at 558 nm, number of flashes 30, integration time 2000 μs). IC50 determination was performed with a serial dilution of the test compounds.

In data set [3] the target is T3, BCRP (Homo sapiens, UniProt Q9UNQ0).
T3 construct: endogenous in cells; host or cells: MCF-7/MX human breast adenocarcinoma cells (mitoxantrone-selected)
T3 sequence (Q9UNQ0 1-655): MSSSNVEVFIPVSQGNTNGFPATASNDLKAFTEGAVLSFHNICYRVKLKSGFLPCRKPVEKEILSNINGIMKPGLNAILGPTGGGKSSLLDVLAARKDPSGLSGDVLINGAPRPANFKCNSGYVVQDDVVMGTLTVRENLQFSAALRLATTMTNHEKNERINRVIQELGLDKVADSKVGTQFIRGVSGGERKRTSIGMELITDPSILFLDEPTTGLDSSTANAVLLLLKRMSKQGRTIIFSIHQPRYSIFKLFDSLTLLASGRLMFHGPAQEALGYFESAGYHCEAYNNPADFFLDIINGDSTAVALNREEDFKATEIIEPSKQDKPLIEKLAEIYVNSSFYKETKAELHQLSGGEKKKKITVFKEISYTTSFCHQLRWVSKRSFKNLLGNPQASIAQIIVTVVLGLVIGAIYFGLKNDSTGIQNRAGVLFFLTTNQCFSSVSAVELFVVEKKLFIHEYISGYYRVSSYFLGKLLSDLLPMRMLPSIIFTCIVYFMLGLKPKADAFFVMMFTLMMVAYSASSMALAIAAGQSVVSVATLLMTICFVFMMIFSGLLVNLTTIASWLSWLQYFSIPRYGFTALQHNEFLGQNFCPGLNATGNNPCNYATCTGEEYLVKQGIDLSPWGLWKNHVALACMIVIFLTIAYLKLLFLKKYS
The data set is described as follows: BCRP transport assay (Hoechst 33342) in MCF-7/MX cells. Format: cell-based. On the procedure:
Breast cancer resistance protein transport activity was determined in the BCRP-expressing MCF-7/MX cell line. Hoechst 33342 was applied as transporter substrate and 1 μM Ko143 as positive control or 0.5% DMSO as negative control and the assay was performed according to the P-gp assay. Fluorescence was measured at an excitation wavelength of 355 nm and emission wavelength of 460 nm. The transport activity of BCRP was analyzed by determining the plateau of the fluorescence-time curve by using non-linear regression (one-phase exponential fit). Normalization of the data to Ko143 (100% inhibition) and DMSO (0% inhibition) was performed.

The test system of data set [4] is A549 cells. The data set is described as follows: CellTiter-Glo cell viability assay (cytotoxicity), A549. Format: cell-based, human. As to conditions: for IC50: Homo sapiens, A549, 48 h, mean ± SEM. On the procedure: The human lung adenocarcinoma cell line A549 was cultured in DMEM medium supplemented with 10% fetal bovine serum (FBS), 100 U/mL penicillin and 100 μg/mL streptomycin. P-gp-expressing human colon adenocarcinoma cells HCT-15 were cultured in RPMI 1640 medium supplemented with 10% FBS, 100 U/mL penicillin and 100 μg/mL streptomycin. BCRP-expressing MCF-7/MX human breast adenocarcinoma cells were cultured in DMEM medium supplemented with 10% FBS, 100 U/mL penicillin and 100 μg/mL streptomycin. MRP1-expressing H69AR human small cell lung cancer cells were cultured in RPMI 1640 medium (ATCC modification) supplemented with 20% FBS, 100 U/mL penicillin and 100 μg/mL streptomycin. All cancer cell lines employed have been systematically characterized regarding their respective ABC transporter expression profile ([Sachs et al., 2019]).
Cytotoxic activity of test compounds was analyzed after 48 h using the CellTiter-Glo Luminescent Cell Viability Assay published previously ([Weber et al., 2017]) in 384-well plates with the following cell densities: A549, MCF-7/MX: 2 × 10^3 cells/well; HCT-15: 3 × 10^3 cells/well; H69AR: 5 × 10^3 cells/well. Pipetting was conducted with the CyBi-Well 96-channel simultaneous pipettor (Analytik Jena AG, Jena, Germany). For generation of dose-response curves and calculation of IC50 values, the four-parameter logistic model was applied.

T1 sequence (P08183 whole entry): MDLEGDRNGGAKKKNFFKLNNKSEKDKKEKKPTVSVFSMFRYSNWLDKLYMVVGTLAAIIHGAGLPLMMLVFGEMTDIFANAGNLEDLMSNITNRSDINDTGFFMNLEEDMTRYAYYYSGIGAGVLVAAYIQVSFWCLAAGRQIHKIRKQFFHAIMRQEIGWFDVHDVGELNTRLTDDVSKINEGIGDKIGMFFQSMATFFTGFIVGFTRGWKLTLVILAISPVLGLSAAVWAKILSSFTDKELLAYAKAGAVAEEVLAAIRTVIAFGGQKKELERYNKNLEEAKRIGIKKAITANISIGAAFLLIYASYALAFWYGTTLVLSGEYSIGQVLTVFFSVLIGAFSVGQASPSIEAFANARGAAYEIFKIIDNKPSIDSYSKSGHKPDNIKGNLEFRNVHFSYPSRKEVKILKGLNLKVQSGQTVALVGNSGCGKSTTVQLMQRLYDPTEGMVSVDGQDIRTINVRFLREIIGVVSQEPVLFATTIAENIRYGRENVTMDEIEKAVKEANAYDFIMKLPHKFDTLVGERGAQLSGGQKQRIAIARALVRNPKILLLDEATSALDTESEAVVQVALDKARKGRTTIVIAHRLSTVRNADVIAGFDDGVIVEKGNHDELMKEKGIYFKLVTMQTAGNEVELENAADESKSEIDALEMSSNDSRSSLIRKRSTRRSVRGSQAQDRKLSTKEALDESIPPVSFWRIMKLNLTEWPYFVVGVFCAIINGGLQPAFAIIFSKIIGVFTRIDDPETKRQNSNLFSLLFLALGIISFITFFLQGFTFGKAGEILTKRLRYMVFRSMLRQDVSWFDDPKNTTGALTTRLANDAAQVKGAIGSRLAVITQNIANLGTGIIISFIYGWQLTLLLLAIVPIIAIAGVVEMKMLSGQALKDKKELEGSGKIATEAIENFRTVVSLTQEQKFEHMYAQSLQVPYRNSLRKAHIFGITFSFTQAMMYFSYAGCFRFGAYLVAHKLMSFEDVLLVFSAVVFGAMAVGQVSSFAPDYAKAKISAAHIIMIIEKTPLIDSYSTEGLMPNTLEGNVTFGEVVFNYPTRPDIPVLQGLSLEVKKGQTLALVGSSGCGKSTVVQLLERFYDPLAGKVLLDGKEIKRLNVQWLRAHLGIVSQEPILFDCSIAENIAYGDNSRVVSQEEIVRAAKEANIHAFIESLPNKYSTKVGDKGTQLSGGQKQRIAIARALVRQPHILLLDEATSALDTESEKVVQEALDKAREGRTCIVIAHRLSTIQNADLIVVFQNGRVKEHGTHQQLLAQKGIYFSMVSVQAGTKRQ

As usually defined, the IC50 is the concentration needed to halve the response being measured. As to `COc1cc(O)c2c(c1)C[C@H](C)OC2=O` [Angelicoin B (4), angelicoin B], in data set [1], the “Inhibition of P-gp (in words)” value was “did not differ significantly from those of derivative 14”. In addition, the “R6G transport activity of Pdr5 WT inhibited to (initial screen)” value is given as “no effect” in data set [2] (listed as 4) and “did not interfere with Pdr5-mediated R6G transport” in data set [2] (listed as angelicoin B (4)). The “Inhibition of BCRP (in words)” value in data set [3] is reported as “no inhibitory activity could be observed”. The IC50 in data set [4] is more than 100 µM.

On to `COc1cc(O)c2c(c1)CCOC2=O` [Compound 14], for which the “Relative inhibition of P-gp, span over the tested concentrations” value in data set [1] (different concentrations, normalized to PSC833) was “up to 10%”. Besides, the “R6G transport activity of Pdr5 WT inhibited to (initial screen)” value in data set [2] is “did not interfere with Pdr5-mediated R6G transport; also recorded: no effect”. The “Inhibition of BCRP (in words)” value in data set [3] is on record as “did not inhibit BCRP”. The IC50 in data set [4] is more than 100 µM.

As to `CCCCCC1Cc2cc(OC)cc(O)c2C(=O)O1` (stereo not shown) [Compound 16], the inhibition at 10 μM in data set [1] (human, P-gp-expressing HCT-15 cells, probe calcein-AM (0.5 μM), 10 μM, normalized to 2.5 μM PSC833 (100%) and DMSO (0%), read-out: Relative inhibition of P-gp) was 36.3 ± 5.3%. In data set [1] (human, P-gp-expressing HCT-15 cells, probe calcein-AM (0.5 μM), 50 μM, normalized to 2.5 μM PSC833 (100%) and DMSO (0%), read-out: Relative inhibition of P-gp), the inhibition at 50 μM was 81.2 ± 2.7%. The IC50 in data set [2] is 15.1 ± 2.1 µM; in data set [4] it was 78.6 ± 2.2 µM. In addition, in data set [2], the “R6G transport activity of Pdr5 WT inhibited to (initial screen)” value is “inhibit the transport of R6G completely; also recorded: inhibit the transport activity of Pdr5 WT completely”. Besides, in data set [3] (human, BCRP-expressing MCF-7/MX cells, probe Hoechst 33342, 10 μM, normalized to 1 μM Ko143 (100%) and DMSO (0%), read-out: Relative inhibition of BCRP), the inhibition at 3 h, 10 μM was 35.3 ± 3.4%. The inhibition at 3 h, 50 μM in data set [3] (human, BCRP-expressing MCF-7/MX cells, probe Hoechst 33342, 50 μM, normalized to 1 μM Ko143 (100%) and DMSO (0%), read-out: Relative inhibition of BCRP) turned out to be 89.1 ± 4.6%.

For the compound `CCCCCC1Cc2cc(OC)cc(OC)c2C(=O)O1` (stereo not shown) [Compound 16a], the inhibition at 20 μM in data set [1] (human, P-gp-expressing HCT-15 cells, probe calcein-AM (0.5 μM), 20 μM, normalized to 2.5 μM PSC833 (100%) and DMSO (0%), read-out: Relative inhibition of P-gp) was more than 20%. In addition, the IC50 in data set [2] amounted to 14.6 ± 3.9 µM; in data set [4], 53.6 ± 5.6 µM. For the same compound, in data set [2], the “R6G transport activity of Pdr5 WT inhibited to (initial screen)” value is “inhibit the transport of R6G completely; also recorded: inhibit the transport activity of Pdr5 WT completely”. Also, the inhibition at 3 h in data set [3] (human, BCRP-expressing MCF-7/MX cells, probe Hoechst 33342, different concentrations, normalized to Ko143, read-out: Relative inhibition of BCRP, span over the tested concentrations) fell in the range of 2.3 to 14.9%. In data set [4] (A549 cells), the “fold lower IC50 value than compound 16” value is given as “about 1.5 fold”.
